# Source: patent US6914045B2, “Glycopeptide antibiotics” (Wyeth Holdings Corporation, priority 2001, dated 2005)
# Numbered stars: 1 amine (or outer) side, 2 acyl side, 3 side chain; on linkers, the order of the positions; unused ones are H or OH. Square brackets hold non-standard residues; d marks the D form. Peptide text beside a SMILES is read from it. * marks the point of attachment. ξ: configuration not given here. X1 = N=C1NCC(C(O)C(N[*:1])C(=O)[*:2])N1C1OC(CO)C(O)C(O)C1O; ξEnduracididine(βξ-OH,4'ξ) = N=C1NCC(C(O)C(N)C(=O)O)N1; ξPhe(4-Cl,βξ-Me) = CC(c1ccc(Cl)cc1)C(N)C(=O)O; X2 = OCC1OC(OC2C(CO)OC(*)C(O)C2O)C(O)C(O)C1O
# Legend:
# Assay in all cases: in vitro antibacterial evaluation, MIC by broth dilution
# Format in all cases: cell-based
# [1] = system: Enterococcus sp.; settings: broth dilution, 18 hours at 35° C.
# Outline: (§1)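 MIC, the lowest antibiotic concentration preventing growth, was read across 64-0.06 μg/mL with 5×10^5 CFU/mL inoculum. Method followed NCCLS M7-A2 broth dilution using Mueller-Hinton II; Gram-positive strains covered recent methicillin-, penicillin- and/or vancomycin-resistant clinical isolates.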
# [2] = system: Escherichia coli; settings: 18 hours at 35° C.
# Outline: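 Broth dilution per NCCLS standard M7-A2 in Muller-Hinton II […], with an inoculum of 5×10^5 CFU/mL and antibiotic spanning 64-0.06 μg/mL. The MIC is the lowest concentration that inhibits growth of the organism.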
# [3] = system: Staphylococcus sp.; settings: broth dilution, 18 hours at 35° C.
# Outline: as §1
# [4] = system: Streptococcus sp.; settings: broth dilution, 18 hours at 35° C.
# Outline: as §1
smiles,measurement,setting,value
"CC(c1ccc(Cl)cc1)C1NC(=O)CNC(=O)C(CO)NC(=O)C(C(O)C2CNC(=N)N2C2OC(CO)C(O)C(O)C2O)NC(=O)C(C(O)C2CNC(=N)N2)NC(=O)C(Cc2ccc(OC3OC(CO)C(OC4OC(CO)C(O)C(O)C4O)C(O)C3O)cc2)NC1=O (stereo not drawn) [Example 262a, Cyclo[glycyl-4-chloro-β-methylphenylalanyl-O-(4-O-hexopyranosylhexopyranosyl)tyrosyl-3-(2-iminoimidazolidin-4-yl)seryl-3-(3-hexoopyranosyl-2-iminoimidazolidin-4-yl)serylseryl]] (cyclo(G[ξPhe(4-Cl,βξ-Me)]Y(X2)[ξEnduracididine(βξ-OH,4'ξ)][X1]S); configuration not given here)",MIC Enterococcus avium (GC 4558),[1]; Enterococcus avium (GC 4558),>128 µg/mL
same,MIC Enterococcus faecalis (ATCC 29212),[1]; Enterococcus faecalis (ATCC 29212),>128 µg/mL
same,MIC Enterococcus faecalis (GC 4553),[1]; Enterococcus faecalis (GC 4553),>128 µg/mL
same,MIC Enterococcus faecalis (GC 4554),[1]; Enterococcus faecalis (GC 4554),>128 µg/mL
same,MIC Enterococcus faecium (GC 2243),[1]; Enterococcus faecium (GC 2243),>128 µg/mL
same,MIC Enterococcus faecium (GC 4556),[1]; Enterococcus faecium (GC 4556),>128 µg/mL
same,MIC Enterococcus faecium (GC 4557),[1]; Enterococcus faecium (GC 4557),>128 µg/mL
same,MIC Enterococcus faecalis (ATCC 29212),[1]; strain ATCC 29212,>128 µg/mL
same,MIC Enterococcus faecalis (GC 2242),[1]; strain GC 2242,>128 µg/mL
same,MIC Enterococcus faecium (GC 2243),[1]; strain GC 2243,>128 µg/mL
same,MIC Enterococcus faecalis (GC 4552),[1]; strain GC 4552,>128 µg/mL
same,MIC Enterococcus faecalis (GC 4553),[1]; strain GC 4553,>128 µg/mL
same,MIC Enterococcus faecalis (GC 4554),[1]; strain GC 4554,>128 µg/mL
same,MIC Enterococcus faecium (GC 4556),[1]; strain GC 4556,>128 µg/mL
same,MIC Enterococcus faecium (GC 4557),[1]; strain GC 4557,>128 µg/mL
same,MIC Enterococcus avium (GC 4558),[1]; strain GC 4558,>128 µg/mL
same,MIC Escherichia coli (ATCC 25922),[2]; Escherichia coli (ATCC 25922),>128 µg/mL
same,MIC Escherichia coli (GC 4559),[2]; Escherichia coli (GC 4559),>128 µg/mL
same,MIC Escherichia coli (GC 4560),[2]; Escherichia coli (GC 4560),16 µg/mL
same,MIC Coagulase Negative Staphylococcus (GC 4547),[3],64 µg/mL
same,MIC Coagulase Negative Staphylococcus (GC 4548),[3],64 µg/mL
same,MIC Coagulase Negative Staphylococcus (GC 4549),[3],16 µg/mL
same,MIC Coagulase Negative Staphylococcus (GC 4551),[3],128 µg/mL
same,MIC Staphylococcus aureus (ATCC 29213),[3],64 µg/mL
same,MIC Staphylococcus aureus (GC 1131),[3],128 µg/mL
same,MIC Staphylococcus aureus (GC 4541),[3],64 µg/mL
same,MIC Staphylococcus aureus (GC 4542),[3],>128 µg/mL
same,MIC Staphylococcus aureus (GC 4544),[3],64 µg/mL
same,MIC Staphylococcus aureus (GC 4545),[3],64 µg/mL
same,MIC Staphylococcus aureus-SMITH (GC 4543),[3],64 µg/mL
same,MIC Staphylococcus haemolyticus (GC 4546),[3],64 µg/mL
same,MIC Staphylococcus aureus (ATCC 29213),[3]; strain ATCC 29213,64 µg/mL
same,MIC Staphylococcus aureus (GC 1131),[3]; strain GC 1131,128 µg/mL
same,MIC Staphylococcus aureus (GC 4541),[3]; strain GC 4541,64 µg/mL
same,MIC Staphylococcus aureus (GC 4542),[3]; strain GC 4542,>128 µg/mL
same,MIC Staphylococcus aureus (GC 4544),[3]; strain GC 4544,64 µg/mL
same,MIC Staphylococcus aureus (GC 4545),[3]; strain GC 4545,64 µg/mL
same,MIC Staphylococcus haemolyticus (GC 4546),[3]; strain GC 4546,64 µg/mL
same,MIC Coagulase Negative Staphylococcus (GC 4547),[3]; strain GC 4547,64 µg/mL
same,MIC Coagulase Negative Staphylococcus (GC 4548),[3]; strain GC 4548,64 µg/mL
same,MIC Coagulase Negative Staphylococcus (GC 4549),[3]; strain GC 4549,16 µg/mL
same,MIC Coagulase Negative Staphylococcus (GC 4551),[3]; strain GC 4551,128 µg/mL
same,MIC Staphylococcus aureus-SMITH (GC 4543),[3]; strain SMITH GC 4543,64 µg/mL
same,MIC Streptococcus agalactiae (GC 4564),[4]; strain GC 4564,32 µg/mL
same,MIC Streptococcus pyogenes (ID-3187),[4]; strain ID-3187,32 µg/mL
